Laboratory results from patent US8834910B2, “Sustained release dispenser comprising two or more sex pheromone substances” (Shin-Etsu Chemical Co., Ltd., priority 2003, dated 2014).

Assay: Vapor pressure by the gas flow method (OECD guideline)
Format: physicochemical
Conditions: head: 20° C.; text: gas flow method at 25° C.
Experimental: Chemical structure, relation with a target insect and carbon number of each component are listed in the pest control of the pear and peach in Japan. The vapor pressure was measured by the gas flow method at 25° C. according to the “Addendum to the OECD chemical test guideline, issues 7 and 8” (Adopted on Jul. 27, 1995).

| Vapor pressure (20° C.) (Pa) | Structure (SMILES) |
| --- | --- |
| 0.186 Pa | CCC(C)CCCCCCCCCOC(C)=O (stereo not drawn) [10-methyldodecyl acetate] |
| 0.246 Pa | C=CCCCCCCCCCCOC(C)=O [11-dodecenyl acetate] |
| 0.980 Pa | CCC/C=C\CCCCCCCO [Z-8-dodecene-1-ol] |
| 0.267 Pa | CCC/C=C\CCCCCCCOC(C)=O [Z-8-dodecenyl acetate] |
| 0.267 Pa | CC/C=C\CCCCCCCCOC(C)=O [Z-9-dodecenyl acetate] |
| 0.100 Pa | CCCC/C=C\CCCCCCCCOC(C)=O [Z-9-tetradecenyl acetate] |
| 0.070 Pa | CC/C=C\CCCCCCCCCCO [Z-11-tetradecene-1-ol] |
| 0.100 Pa | CC/C=C\CCCCCCCCCCOC(C)=O [Z-11-tetradecenyl acetate] |
| 0.005 Pa | CCCCCC/C=C\CCC(=O)CCCCCCCCC [Z-13-icosen-10-one] |
